{
  "source": "paper PMC9516532",
  "about": "“A genetically encoded BRET-based SARS-CoV-2 M^pro protease activity sensor” (Communications Chemistry, 2022)",
  "origin": "cited, not measured here",
  "test_system": "P-gp",
  "settings": "reviewer's comment; ref ACS Infect. Dis. 2021, 7, 3, 586–597",
  "data": [
    {"molecule": "CC(C)C[C@H](NC(=O)OCc1ccccc1)C(=O)N[C@@H](C[C@@H]1CCNC1=O)C(O)S(=O)(=O)[O-].[Na+]", "note": "(stereo partly shown) [GC376]", "values": [
      {"measurement": "P-gp substrate", "value": "known substrate of P-gp"}
    ]}
  ]
}
